Results: article PMC4332668, “Characterization of a Novel PQQ-Dependent Quinohemoprotein Pyranose Dehydrogenase from Coprinopsis cinerea Classified into Auxiliary Activities Family 12 in Carbohydrate-Active Enzymes” (PLoS ONE, 2015)

Target: T1, DHPDH (Coprinopsis cinerea, UniProt A8P0V4)
T1 construct: gene PDH; isolated PQQ (AA12) dehydrogenase domain, residues 240-649, recombinant from Pichia pastoris, purified as apo-form
T1 sequence (A8P0V4 240-649): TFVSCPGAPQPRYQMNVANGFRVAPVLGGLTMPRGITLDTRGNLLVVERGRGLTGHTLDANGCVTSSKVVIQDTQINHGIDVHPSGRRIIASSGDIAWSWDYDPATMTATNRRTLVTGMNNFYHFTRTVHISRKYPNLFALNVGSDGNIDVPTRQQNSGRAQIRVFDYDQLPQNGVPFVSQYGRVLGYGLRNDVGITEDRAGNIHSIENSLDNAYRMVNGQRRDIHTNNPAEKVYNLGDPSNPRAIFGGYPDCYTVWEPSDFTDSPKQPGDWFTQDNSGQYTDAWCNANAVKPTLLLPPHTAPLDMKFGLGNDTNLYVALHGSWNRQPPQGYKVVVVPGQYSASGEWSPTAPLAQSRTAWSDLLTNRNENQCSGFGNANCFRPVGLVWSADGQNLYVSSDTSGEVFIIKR
Test: UV-vis spectral reduction of PQQ; PMS/DCPIP assay
Assay type: biochemical
Conditions: holo-form; 1 mM L-fucose; 50 mM HEPES pH 7.0; 1 mM CaCl2; room temperature (spectra)

C[C@@H]1OC(O)[C@@H](O)[C@H](O)[C@@H]1O (stereo partly drawn) [L-fucose]
UV-vis spectral reduction of PQQ; PMS/DCPIP assay: The addition of L-fucose resulted in the reduction of PQQ
